Measured values: patent US12643858B2 (Inipharm, Inc., priority 2020, dated 2026)

What follows are molecules tested against T1, HSD17B13 enzyme (Homo sapiens, UniProt Q7Z5P4) (assay: Estrone detection assay (LC/MS, estradiol to estrone conversion) for HSD17B13 activity). Details: substrate 4 μM Estradiol, 6 mM NAD+, 30 nM HSD17B13 enzyme, 2 hours at 26.5° C.
T1 construct: His; made in house; host or cells: E. coli
T1 sequence (Q7Z5P4 20-300): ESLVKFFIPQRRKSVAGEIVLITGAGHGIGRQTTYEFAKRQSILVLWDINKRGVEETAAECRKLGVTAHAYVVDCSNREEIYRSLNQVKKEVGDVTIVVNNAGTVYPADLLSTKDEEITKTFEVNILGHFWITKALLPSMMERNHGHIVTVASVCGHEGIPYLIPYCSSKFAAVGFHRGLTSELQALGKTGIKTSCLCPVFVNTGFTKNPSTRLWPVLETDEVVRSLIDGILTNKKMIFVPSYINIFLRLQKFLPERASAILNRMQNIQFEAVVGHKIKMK
Type: biochemical
Description: Example B: Estrone Detection Assay for Evaluation of HSD17ß13 Activity and Identification of Inhibitors
The liquid chromatography/mass spectrometry (LC/MS) estrone detection assay monitors the conversion of estradiol to estrone by HSD17B13. This assay was undertaken in a 96wp format (Eppendorf deep well Plate 96/500) in an 80 μl reaction volume containing: 4 μM of Estradiol (E2; Cayman; Ser. No. 10/006,315), 6 mM NAD+(Sigma; #N0623) and 30 nM HSD17B13 enzyme (in-house; E. coli expressed His-tagged, purified, soluble protein) in a reaction containing […] potassium phosphate buffer pH 7.4, with 0.5% vehicle (DMSO). Reactions were incubated for 2 hours at 26.5° C., and estradiol (E2) conversion to estrone (E1) was quantitated by LC-MS/MS based analyte detection for both E2 and E1 using LCMS grade reagents.
Reactions were terminated by the addition of two volumes of acetonitrile (MeCN; LCMS grade; CAS #75/05/8) containing deuterated (D4)-E1 used as internal standard (Clear Synth; #CS-T-54273; 500 ng/mL final concentration). Samples were applied to pre-prepared Bond Elut-C18 extraction cartridges (3 mL; Agilent; Ser. No. 12/102,028), washed and eluted in MeCN. Eluates were dried under nitrogen and re-suspended in 60% methanol (LCMS grade methanol; CAS #67/56/1) before submission for analysis. Aqueous linearity for E2 and E1 were included for quantification.
Analysis of samples was undertaken on a XBridge BEH C18 column (Waters; #186003033) using 0.1% Diethyl Amine in MeCN (mobile phase A; DEA CAS #109-89-7) and 0.1% Diethyl Amine in milli-Q water (mobile phase B) in a 3 min gradient allowing 25% B. Analytes were detected in negative mode using MRM analysis, with E2 having a RT of 1.85 min and E1 having a RT of 2 min. Activity of the enzyme, in the absence of NAD+, was used to evaluate specificity of conversion. Enzyme activity in the presence of test samples was expressed as a percentage of the uninhibited enzyme activity, and plotted versus inhibitor concentration. Non-linear regression was performed using a four-parameter logistic model and GraphPad Prism software (GraphPad Software, La Jolla, CA). All assessments were undertaken in duplicate evaluations and pooled during extraction process and subsequently injected as duplicates for LC-MS/MS analysis.

IC50 [µM] | SMILES
≤ 0.1 | Oc1c(F)ccc(Oc2ccnc(-c3ccc(N4CCOCC4)cc3)n2)c1F [Example 115, 2,6-difluoro-3-((2-(4-morpholinophenyl)pyrimidin-4-yl)oxy)phenol]
≤ 0.1 | O=S1(=O)CCN(c2ccc(-c3nccc(Oc4ccc(F)c(O)c4F)n3)cc2)CC1 [Example 116, 4-(4-(4-(2,4-difluoro-3-hydroxyphenoxy)pyrimidin-2-yl)phenyl) thiomorpholine 1,1-dioxide]
0.1 to 0.5 | Oc1c(Cl)ccc(Oc2ccnc(-c3ccc(N4CCOCC4)cc3)n2)c1F [Example 117, 6-chloro-2-fluoro-3-((2-(4-morpholinophenyl)pyrimidin-4-yl)oxy)phenol]
0.5 to 1 | Oc1c(Cl)ccc(Oc2ccnc(-c3ccc(N4CCOCC4)cc3)n2)c1Cl [Example 118, 2,6-dichloro-3-((2-(4-morpholinophenyl)pyrimidin-4-yl)oxy)pheno]

The molecules below were run against T1, HSD17B13 enzyme (assay: NADH detection assay (fluorescence based LTB3 assay) for HSD17B13 activity). Details: substrate 25 μM LTB3, 3 mM NAD+, 125 nM HSD17B13 enzyme, 1 hour at 26.5° C.
Type: biochemical
Procedure, shortened: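 E. coli-expressed His-tagged HSD17B13 (125 nM) with 25 μM LTB3 and 3 mM NAD+ in 1 M potassium phosphate pH 7.4, 1% DMSO, 1 h at 26.5 °C. NADH fluorescence (Ex 340/Em 445 nm) minus t=0 baseline and no-LTB3 controls, converted via NADH standards. IC50 from four-parameter fits over ten concentrations (30 μM-2.5 nM), duplicate runs.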

SMILES | IC50 [µM]
O=c1ccc(Oc2cccc(-c3cccc(O)c3F)n2)cn1C(F)F [Example 5, 1-(difluoromethyl)-5-((6-(2-fluoro-3-hydroxyphenyl)pyridin-2-yl)oxy)pyridin-2(1H)-one] | > 30
COc1cccc(-c2cccc(Oc3cccc(CNS(C)(=O)=O)c3)n2)c1F [Example 96, N-[(3-{[6-(2-fluoro-3-methoxyphenyl)pyridin-2-yl]oxy}phenyl)methyl]methane-sulfonamide] | > 30
Oc1cc(Oc2cccc(-c3ccc(OCc4ccccc4)cc3)n2)ccc1F [Example 12, 5-((6-(4-(benzyloxy)phenyl)pyridin-2-yl)oxy)-2-fluorophenol] | ≤ 5
O=C1Cc2ccc(Oc3cccc(-c4cccc(O)c4F)n3)cc2N1 [Example 7] | > 30

Now from value to molecule:

IC50 [µM] | SMILES
10 to 30 | COc1ccc(-c2cccc(Oc3ccc(F)c(O)c3)n2)cc1 [Example 102, 2-fluoro-5-((6-(4-methoxyphenyl)pyridin-2-yl)oxy)phenol]
≤ 5 | Oc1cc(Oc2cccc(-c3ccc4c(c3)OCO4)n2)ccc1F [Example 67, 5-((6-(benzo[d][1,3]dioxol-5-yl)pyridin-2-yl)oxy)-2-fluorophenol]
> 30 | O=c1ccc(-c2cccc(Oc3ccc(F)c(O)c3)n2)cn1C(F)F [Example 73, 1′-(difluoromethyl)-6-(4-fluoro-3-hydroxyphenoxy)-[2,3′-bipyridin]-6′(1′H)-one]
≤ 5 | Nc1nc2cc(-c3cccc(Oc4ccc(F)c(O)c4)n3)ccc2s1 [Example 47, 5-((6-(2-aminobenzo[d]thiazol-5-yl)pyridin-2-yl)oxy)-2-fluorophenol]
